Measured values taken from ChEMBL document CHEMBL1151168, “Cytotoxic sterols and saponins from the starfish Certonardoa semiregularis” (2004).
Converted amounts (≈) assume the structure as drawn.

Legend:
Type in all cases: functional
Details in all cases: read-out: ED50 (the source's name)
SK-OV-3 = test: Cytotoxicity against human SKOV3 cells
HCT-15 = test: Cytotoxicity against human HCT15 cells
XF498 = test: Cytotoxicity against human XF498 cells
A549 = test: Cytotoxicity against human A549 cells
SK-MEL-2 = test: Cytotoxicity against human SK-MEL-2 cells

## CC(C)[C@@H](CCO)CC[C@@H](C)[C@H]1[C@@H](O)[C@@H](O)[C@@H]2[C@]1(C)CC[C@@H]1[C@@]3(C)CC[C@H](O)C[C@@H]3[C@@H](O)C[C@]12O [CERTONARDOSTEROL O1]
SK-OV-3
  EC50: 6.59 µg/mL (≈ 13.3 µM)
HCT-15
  EC50: 17.7 µg/mL (≈ 35.6 µM)
XF498
  EC50: 6.92 µg/mL (≈ 13.9 µM)
A549
  EC50: 8.32 µg/mL (≈ 16.7 µM)
SK-MEL-2
  EC50: 5.32 µg/mL (≈ 10.7 µM)

## CO[C@@H]1CO[C@@H](OCC[C@@H](/C=C/[C@@H](C)[C@H]2[C@@H](O)[C@@H](O)[C@H]3[C@@H]4C[C@H](O)[C@H]5[C@@H](O)[C@@H](O)CC[C@]5(C)[C@H]4CC[C@]23C)C(C)C)[C@H](O)[C@H]1O [CERTONARDOSIDE J3]
SK-OV-3
  EC50: 0.74 µg/mL (≈ 1.15 µM)
HCT-15
  EC50: 2.76 µg/mL (≈ 4.31 µM)
XF498
  EC50: 0.45 µg/mL (≈ 0.702 µM)
A549
  EC50: 0.83 µg/mL (≈ 1.3 µM)
SK-MEL-2
  EC50: 0.3 µg/mL (≈ 0.468 µM)

## CC(C)[C@H](/C=C/[C@@H](C)[C@H]1C[C@@H](O)[C@H]2[C@@H]3C[C@H](O)[C@H]4C[C@@H](O)CC[C@]4(C)[C@H]3CC[C@@]21C)CO [CERTONARDOSTEROL D2]
SK-OV-3
  EC50: 0.08 µg/mL (≈ 0.178 µM)
HCT-15
  EC50: 0.01 µg/mL (≈ 0.0223 µM)
XF498
  EC50: 0.07 µg/mL (≈ 0.156 µM)
A549
  EC50: 0.15 µg/mL (≈ 0.334 µM)
SK-MEL-2
  EC50: 0.09 µg/mL (≈ 0.201 µM)

## CC(C)[C@@H](CCO)CC[C@@H](C)[C@H]1[C@@H](O)[C@@H](O)[C@H]2[C@@H]3C[C@H](O)[C@H]4C[C@@H](O)CC[C@]4(C)[C@H]3CC[C@]12C [CERTONARDOSTEROL N1]
SK-OV-3
  EC50: 0.9 µg/mL (≈ 1.87 µM)
HCT-15
  EC50: 1.25 µg/mL (≈ 2.6 µM)
XF498
  EC50: 0.43 µg/mL (≈ 0.894 µM)
A549
  EC50: 0.82 µg/mL (≈ 1.71 µM)
SK-MEL-2
  EC50: 0.4 µg/mL (≈ 0.832 µM)

## CO[C@@H]1CO[C@@H](OCC[C@@H](CC[C@@H](C)[C@H]2[C@@H](O)[C@@H](O)[C@H]3[C@@H]4C[C@H](O)[C@H]5[C@@H](O)[C@@H](O)CC[C@]5(C)[C@H]4CC[C@]23C)C(C)C)[C@H](O)[C@H]1O [CERTONARDOSIDE J2]
SK-OV-3
  EC50: 3.29 µg/mL (≈ 5.12 µM)
HCT-15
  EC50: 8.2 µg/mL (≈ 12.8 µM)
XF498
  EC50: 3.53 µg/mL (≈ 5.49 µM)
A549
  EC50: 3.41 µg/mL (≈ 5.3 µM)
SK-MEL-2
  EC50: 2.36 µg/mL (≈ 3.67 µM)

## CO[C@@H]1CO[C@@H](OCC[C@@H](CC[C@@H](C)[C@H]2[C@@H](O)[C@@H](O)[C@H]3[C@@H]4C[C@H](O)[C@H]5C[C@@H](O)CC[C@]5(C)[C@H]4CC[C@]23C)C(C)C)[C@H](O)[C@H]1O [CERTONARDOSIDE O1]
SK-OV-3
  EC50: 2 µg/mL (≈ 3.19 µM)
HCT-15
  EC50: 2.28 µg/mL (≈ 3.64 µM)
XF498
  EC50: 0.74 µg/mL (≈ 1.18 µM)
A549
  EC50: 1.25 µg/mL (≈ 1.99 µM)
SK-MEL-2
  EC50: 0.68 µg/mL (≈ 1.08 µM)

## C[C@H](/C=C/[C@@H](C)[C@H]1C[C@@H](O)[C@H]2[C@@H]3C[C@H](O)[C@H]4C[C@@H](O)CC[C@]4(C)[C@H]3CC[C@@]21C)[C@H](C)CO [CERTONARDOSTEROL D4]
SK-OV-3
  EC50: 1.51 µg/mL (≈ 3.37 µM)
HCT-15
  EC50: 1.25 µg/mL (≈ 2.79 µM)
XF498
  EC50: 1.22 µg/mL (≈ 2.72 µM)
A549
  EC50: 1.75 µg/mL (≈ 3.9 µM)
SK-MEL-2
  EC50: 0.48 µg/mL (≈ 1.07 µM)

## COc1cccc2c1C(=O)c1c(O)c3c(c(O)c1C2=O)C[C@@](O)(C(=O)CO)C[C@@H]3O[C@H]1C[C@H](N)[C@H](O)[C@H](C)O1 [DOXORUBICIN]
SK-OV-3
  EC50: 0.08 µg/mL (≈ 0.147 µM)
HCT-15
  EC50: 0.06 µg/mL (≈ 0.11 µM)
XF498
  EC50: 0.06 µg/mL (≈ 0.11 µM)
A549
  EC50: 0.01 µg/mL (≈ 0.0184 µM)
SK-MEL-2
  EC50: 0.02 µg/mL (≈ 0.0368 µM)

## CC(C)[C@@H](CCO)CC[C@@H](C)[C@H]1C[C@H](O)[C@H]2[C@@H]3C[C@@H](O)[C@H]4C[C@@H](O)CC[C@]4(C)[C@H]3CC[C@@]21C [CERTONARDOSTEROL E2]
SK-OV-3
  EC50: 0.83 µg/mL (≈ 1.79 µM)
HCT-15
  EC50: 1.26 µg/mL (≈ 2.71 µM)
XF498
  EC50: 0.4 µg/mL (≈ 0.861 µM)
A549
  EC50: 0.48 µg/mL (≈ 1.03 µM)
SK-MEL-2
  EC50: 0.28 µg/mL (≈ 0.602 µM)

## C[C@H](/C=C/[C@@H](C)[C@H]1C[C@@H](O)[C@@H]2[C@]1(C)CC[C@@H]1[C@@]3(C)CC[C@H](O)[C@H](O)[C@@H]3[C@@H](O)C[C@]12O)[C@H](C)CO [CERTONARDOSTEROL A2]
SK-OV-3
  EC50: 1.13 µg/mL (≈ 2.35 µM)
HCT-15
  EC50: 2.54 µg/mL (≈ 5.28 µM)
XF498
  EC50: 0.89 µg/mL (≈ 1.85 µM)
A549
  EC50: 1.75 µg/mL (≈ 3.64 µM)
SK-MEL-2
  EC50: 0.67 µg/mL (≈ 1.39 µM)

## CO[C@@H]1CO[C@@H](OCC[C@@H](CC[C@@H](C)[C@H]2[C@@H](O)[C@@H](O)[C@@H]3[C@]2(C)CC[C@@H]2[C@@]4(C)CC[C@H](O)[C@H](O)[C@@H]4[C@@H](O)C[C@]23O)C(C)C)[C@H](O)[C@H]1O [CERTONARDOSIDE I2]
SK-OV-3
  EC50: 3.06 µg/mL (≈ 4.64 µM)
HCT-15
  EC50: 8.32 µg/mL (≈ 12.6 µM)
XF498
  EC50: 3.69 µg/mL (≈ 5.6 µM)
A549
  EC50: 4.26 µg/mL (≈ 6.47 µM)
SK-MEL-2
  EC50: 2.39 µg/mL (≈ 3.63 µM)

## CO[C@@H]1CO[C@@H](OCC[C@@H](CC[C@@H](C)[C@H]2[C@@H](O)[C@@H](O)[C@@H]3[C@]2(C)CC[C@@H]2[C@@]4(C)CC[C@H](O)C[C@@H]4[C@@H](O)C[C@]23O)C(C)C)[C@H](O)[C@H]1O [CERTONARDOSIDE P1]
SK-OV-3
  EC50: 0.89 µg/mL (≈ 1.38 µM)
HCT-15
  EC50: 2.17 µg/mL (≈ 3.38 µM)
XF498
  EC50: 0.35 µg/mL (≈ 0.544 µM)
A549
  EC50: 0.87 µg/mL (≈ 1.35 µM)
SK-MEL-2
  EC50: 0.26 µg/mL (≈ 0.404 µM)

## C[C@H](/C=C/[C@@H](C)[C@H]1C[C@@H](O)[C@@H]2[C@]1(C)CC[C@@H]1[C@@]3(C)CC[C@H](O)C[C@@H]3[C@@H](O)C[C@]12O)[C@H](C)CO [CERTONARDOSTEROL C2]
SK-OV-3
  EC50: 0.16 µg/mL (≈ 0.344 µM)
HCT-15
  EC50: 0.25 µg/mL (≈ 0.538 µM)
XF498
  EC50: 0.08 µg/mL (≈ 0.172 µM)
A549
  EC50: 0.15 µg/mL (≈ 0.323 µM)
SK-MEL-2
  EC50: < 0.1 µg/mL

## CC(C)[C@@H](CCO)CC[C@@H](C)[C@H]1C[C@@H](O)[C@H]2[C@@H]3C[C@H](O)[C@H]4C[C@@H](O)CC[C@]4(C)[C@H]3CC[C@@]21C [CERTONARDOSTEROL D3]
SK-OV-3
  EC50: 1.33 µg/mL (≈ 2.86 µM)
HCT-15
  EC50: 2.48 µg/mL (≈ 5.34 µM)
XF498
  EC50: 0.84 µg/mL (≈ 1.81 µM)
A549
  EC50: 1.36 µg/mL (≈ 2.93 µM)
SK-MEL-2
  EC50: 0.68 µg/mL (≈ 1.46 µM)

## C[C@H](/C=C/[C@@H](C)[C@H]1CC(O)[C@H]2[C@@H]3CC(O)[C@H]4C[C@@H](O)CC[C@]4(C)[C@H]3CC[C@]12C)[C@H](C)CO (single isomer, unassigned) [CERTONARDOSTEROL E3]
SK-OV-3
  EC50: 0.69 µg/mL (≈ 1.54 µM)
HCT-15
  EC50: 0.73 µg/mL (≈ 1.63 µM)
XF498
  EC50: 0.33 µg/mL (≈ 0.735 µM)
A549
  EC50: 0.54 µg/mL (≈ 1.2 µM)
SK-MEL-2
  EC50: 0.4 µg/mL (≈ 0.891 µM)

## C[C@H](/C=C/[C@@H](C)[C@H]1C[C@@H](O)[C@H]2[C@@H]3C[C@H](O)[C@H]4[C@@H](O)[C@@H](O)CC[C@]4(C)[C@H]3CC[C@@]21C)[C@H](C)CO [CERTONARDOSTEROL B2]
SK-OV-3
  EC50: 2.64 µg/mL (≈ 5.68 µM)
HCT-15
  EC50: 2.71 µg/mL (≈ 5.83 µM)
XF498
  EC50: 2.21 µg/mL (≈ 4.76 µM)
A549
  EC50: 2.33 µg/mL (≈ 5.01 µM)
SK-MEL-2
  EC50: 2.23 µg/mL (≈ 4.8 µM)

## CC(C)[C@@H](CCO)CC[C@@H](C)[C@H]1[C@@H](O)[C@@H](O)[C@@H]2[C@]1(C)CC[C@@H]1[C@@]3(C)CC[C@H](O)[C@H](O)[C@@H]3[C@@H](O)C[C@]12O [CERTONARDOSTEROL P1]
SK-OV-3
  EC50: 3.5 µg/mL (≈ 6.83 µM)
HCT-15
  EC50: 4.39 µg/mL (≈ 8.56 µM)
XF498
  EC50: 3.48 µg/mL (≈ 6.79 µM)
A549
  EC50: 3.3 µg/mL (≈ 6.44 µM)
SK-MEL-2
  EC50: 2.5 µg/mL (≈ 4.88 µM)
